Experiments:
[1] = test system: NUGC3 cells (p53 Y220C); experiment: Cell Proliferation Assay (CellTiter-Glo), NUGC3 p53 Y220C; assay type: cell-based; settings: Homo sapiens, NUGC-3, 120 h, 5 days, read-out: CTG NUGC3 P53 Y220C IC50
Outline: (§1)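 Seeded at 250–500 cells/well, then compound-treated for 5 days; the NCIH1299 lines carry Tet-One inducible p53 Y220C or R273H transduced lentivirally. Viability by CellTiter-Glo luminescence after 10 min at room temperature; IC50 calculated.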

[2] = test system: NCIH1299-inducible p53 Y220C cells; experiment: Cell Proliferation Assay (CellTiter-Glo), NCIH1299-inducible p53 Y220C; assay type: cell-based; settings: Homo sapiens, NCI-H1299, 120 h, 5 days, read-out: CTG H1299 P53 Y220C IC50
Outline: as §1

[3] = target: T1, p53 Y220C mutant protein (amino acid residues 94-293) (Homo sapiens, UniProt P04637, Y220C); experiment: Thermal Shift Assay (TSA), p53 Y220C dTM; assay type: binding
T1 construct: p53 Y220C mutant protein (amino acid residues 94-293)
Description: […] The volume is 5 μL/well. The sealed plate is then loaded onto a QuantStudio 7 Flex instrument for melting temperature (TM) measurement. The temperature is increased from 30 °C to 50 °C, at a rate of 0.03 °C/second. Data are fit into a Boltzmann two-state model to determine the TM.

[4] = target: p53 Y220C (Homo sapiens, UniProt P04637, Y220C); experiment: Luciferase Reporter Assay, p53 Y220C (NCIH1299 cells with inducible p53 Y220C and p53 response element-luciferase); assay type: cell-based; settings: 6 hour compound treatment, read-out: Luc P53 Y220C AC50
Outline: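 NCI-H1299 cells stably carrying a p53 response element-luciferase reporter and Tet-inducible p53 Y220C were induced with 0.5 ug/mL doxycycline for 24 h, then treated with compound for 6 h. Luminescence was read after One-Glo addition. AC50 was derived relative to 10 uM tool compound as positive control.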

[5] = target: T1, p53 Y220C mutant protein (amino acid residues 94-293); experiment: Surface Plasmon Resonance (SPR) assay, p53 Y220C Kd_kinetic; settings: multi-cycle kinetics, 16 or 20 °C, pH 7.5, 1:1 binding model
Outline: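 Kd from multi-cycle SPR kinetics fitted to a 1:1 model, using 2-fold, 7-point compound series over p53 Y220C (residues 94-293). Flow 30 μL/min, 60 s association, 120 s dissociation, at 16 or 20 °C in 50 mM Tris pH 7.5, 100 mM NaCl, 1 mM DTT, 0.01% Brij35, 0.05% Tween-20, 1% DMSO.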

[6] = test system: NCIH1299-inducible p53 R273H cells; experiment: Cell Proliferation Assay (CellTiter-Glo), NCIH1299-inducible p53 R273H; assay type: cell-based; settings: Homo sapiens, NCI-H1299, 120 h, 5 days, read-out: CTG H1299 P53 R273H IC50
Description: Inducible p53 Y220C and R273H constructs (Tet-One inducible expression system; Takara) were stably expressed in NCIH1299 cells by lentiviral transduction. NUGC3, A549, BxPC3, T3M4, HuH7, HCC2935, MFE296, NCIH1299, NCIH1299-inducible p53 Y220C, and NCIH1299-inducible p53 R273H cell lines were used for cell proliferation assay. 250-500 cells were seeded in each well of 384 plate and then compounds were dispensed into each well using Echo or Tecan. After 5 days of incubation, equal volume of CellTiter-Glo reagent (G7570; Promega) was added into each well and the plate was incubated at room temperature for 10 minutes with shaking. The luminescent signal was measured by PheraStar microplate reader and IC50 was calculated.

## CN1CC[C@@H](Nc2cccn3c(SC(F)(F)F)c(-c4noc(CNC(=O)C5CC5)n4)nc23)[C@@H](F)C1 [Example 1, N-{[3-(8-{[(3S,4R)-3-fluoro-1-methylpiperidin-4-yl]amino}-3-[(trifluoromethyl)sulfanyl]imidazo[1,2-a]pyridin-2-yl)-1,2,4-oxadiazol-5-yl]methyl}cyclopropanecarboxamide]
[1]
  IC50: ≥ 3000 nM
[2]
  IC50: ≥ 3000 nM
[3]; 10 uM compound
  ΔTm at 10 µM: 5 to 10 °C
[3]; 100 μM compound, 3 hours at 20 °C, pH 7.4
  ΔTm at 100 µM: 5 to 10 °C
[4]
  AC50: ≥ 3000 nM
[5]
  Kd: 10 to 100 nM
[6]
  IC50: ≥ 10 µM

## CN1CC[C@@H](Nc2cccn3c(SC(F)(F)F)c(-c4noc(CNC(=O)[C@@H]5COCCO5)n4)cc23)[C@@H](F)C1 [Example 11, (2S)—N-{[3-(8-{[(3S,4R)-3-fluoro-1-methylpiperidin-4-yl]amino}-3-[(trifluoromethyl)sulfanyl]indolizin-2-yl)-1,2,4-oxadiazol-5-yl]methyl}-1,4-dioxane-2-carboxamide]
[1]
  IC50: 750 to 1500 nM
[2]
  IC50: 750 to 1500 nM
[4]
  AC50: 750 to 1500 nM
[5]
  Kd: < 10 nM

## CN1CC[C@@H](Nc2cccn3c(SC(F)(F)F)c(-c4noc(CNC(=O)[C@H]5C[C@@H](O)C5)n4)cc23)[C@@H](F)C1 [Example 62, (1s,3s)-N-{[3-(8-{[(3S,4R)-3-fluoro-1-methylpiperidin-4-yl]amino}-3-[(trifluoromethyl)sulfanyl]indolizin-2-yl)-1,2,4-oxadiazol-5-yl]methyl}-3-hydroxycyclobutane-1-carboxamide]
[1]
  IC50: 1500 to 3000 nM
[2]
  IC50: 750 to 1500 nM
[4]
  AC50: 1500 to 3000 nM
[5]
  Kd: < 10 nM

## CN1CC[C@@H](Nc2cccn3c(SC(F)(F)F)c(-c4noc(CNC(=O)c5sccc5OC(F)F)n4)cc23)[C@@H](F)C1 [Example 41, 3-(difluoromethoxy)-N-{[3-(8-{[(3S,4R)-3-fluoro-1-methylpiperidin-4-yl]amino}-3-[(trifluoromethyl)sulfanyl]indolizin-2-yl)-1,2,4-oxadiazol-5-yl]methyl}thiophene-2-carboxamide]
[1]
  IC50: 750 to 1500 nM
[2]
  IC50: 750 to 1500 nM
[4]
  AC50: 750 to 1500 nM
[5]
  Kd: 10 to 100 nM

## CN1CC[C@@H](Nc2cccn3c(SC(F)(F)F)c(-c4noc(CNC(=O)C(C)(C)O)n4)cc23)[C@@H](F)C1 [Example 49, N-{[3-(8-{[(3S,4R)-3-fluoro-1-methylpiperidin-4-yl]amino}-3-[(trifluoromethyl)sulfanyl]indolizin-2-yl)-1,2,4-oxadiazol-5-yl]methyl}-2-hydroxy-2-methylpropanamide]
[1]
  IC50: ≥ 3000 nM
[2]
  IC50: 1500 to 3000 nM
[4]
  AC50: 1500 to 3000 nM
[5]
  Kd: 10 to 100 nM

## C[C@@H](O)CC(=O)NCc1nc(-c2cc3c(N[C@@H]4CCN(C)C[C@@H]4F)cccn3c2SC(F)(F)F)no1 [Example 63, (3R)-N-{[3-(8-{[(3S,4R)-3-fluoro-1-methylpiperidin-4-yl]amino}-3-[(trifluoromethyl)sulfanyl]indolizin-2-yl)-1,2,4-oxadiazol-5-yl]methyl}-3-hydroxybutanamide]
[1]
  IC50: 1500 to 3000 nM
[2]
  IC50: ≥ 3000 nM
[4]
  AC50: 1500 to 3000 nM
[5]
  Kd: < 10 nM

## CN1CC[C@@H](Nc2cccn3c(SC(F)(F)F)c(-c4noc(CNC(=O)C5CC5)n4)cc23)[C@@H](F)C1 [Example 3, N-{[3-(8-{[(3S,4R)-3-fluoro-1-methylpiperidin-4-yl]amino}-3-[(trifluoromethyl)sulfanyl]indolizin-2-yl)-1,2,4-oxadiazol-5-yl]methyl}cyclopropanecarboxamide]
[1]
  IC50: < 750 nM
[2]
  IC50: < 750 nM
[4]
  AC50: < 750 nM
[5]
  Kd: < 10 nM

## CN1CC[C@@H](Nc2cccn3c(SC(F)(F)F)c(-c4noc(CNC(=O)C5(c6ccc(F)cc6)CC5)n4)cc23)[C@@H](F)C1 [Example 46, N-{[3-(8-{[(3S,4R)-3-fluoro-1-methylpiperidin-4-yl]amino}-3-[(trifluoromethyl)sulfanyl]indolizin-2-yl)-1,2,4-oxadiazol-5-yl]methyl}-1-(4-fluorophenyl)cyclopropane-1-carboxamide]
[1]
  IC50: ≥ 3000 nM
[2]
  IC50: ≥ 3000 nM
[4]
  AC50: ≥ 3000 nM
[5]
  Kd: 100 to 1000 nM

## COc1ccc2[nH]nc(C(=O)NCc3nc(-c4cc5c(N[C@@H]6CCN(C)C[C@@H]6F)cccn5c4SC(F)(F)F)no3)c2c1 [Example 21, N-{[3-(8-{[(3S,4R)-3-fluoro-1-methylpiperidin-4-yl]amino}-3-[(trifluoromethyl)sulfanyl]indolizin-2-yl)-1,2,4-oxadiazol-5-yl]methyl}-5-methoxy-1H-indazole-3-carboxamide]
[1]
  IC50: 1500 to 3000 nM
[2]
  IC50: 1500 to 3000 nM
[4]
  AC50: 1500 to 3000 nM
[5]
  Kd: 100 to 1000 nM

## CN1CC[C@@H](Nc2cccn3c(SC(F)(F)F)c(-c4noc(CNC(=O)c5ccc6ncsc6c5)n4)cc23)[C@@H](F)C1 [Example 40, N-{[3-(8-{[(3S,4R)-3-fluoro-1-methylpiperidin-4-yl]amino}-3-[(trifluoromethyl)sulfanyl]indolizin-2-yl)-1,2,4-oxadiazol-5-yl]methyl}-1,3-benzothiazole-6-carboxamide]
[1]
  IC50: < 750 nM
[2]
  IC50: < 750 nM
[4]
  AC50: < 750 nM
[5]
  Kd: 10 to 100 nM

## CN1CC[C@@H](Nc2cccn3c(SC(F)(F)F)c(-c4noc(CNC(=O)c5cnc(C(C)(C)C)o5)n4)cc23)[C@@H](F)C1 [Example 13, 2-tert-butyl-N-{[3-(8-{[(3S,4R)-3-fluoro-1-methylpiperidin-4-yl]amino}-3-[(trifluoromethyl)sulfanyl]indolizin-2-yl)-1,2,4-oxadiazol-5-yl]methyl}-1,3-oxazole-5-carboxamide]
[1]
  IC50: < 750 nM
[2]
  IC50: < 750 nM
[4]
  AC50: < 750 nM
[5]
  Kd: < 10 nM

## CN1CC[C@@H](Nc2cccn3c(SC(F)(F)F)c(-c4noc(CNC(=O)c5sccc5N)n4)cc23)[C@@H](F)C1 [Example 33, 3-amino-N-{[3-(8-{[(3S,4R)-3-fluoro-1-methylpiperidin-4-yl]amino}-3-[(trifluoromethyl)sulfanyl]indolizin-2-yl)-1,2,4-oxadiazol-5-yl]methyl}thiophene-2-carboxamide]
[1]
  IC50: < 750 nM
[2]
  IC50: < 750 nM
[4]
  AC50: < 750 nM
[5]
  Kd: < 10 nM

## CNC(=O)c1cccc(C(=O)NCc2nc(-c3cc4c(N[C@@H]5CCN(C)C[C@@H]5F)cccn4c3SC(F)(F)F)no2)c1 [Example 58, N1—{[3-(8-{[(3S,4R)-3-fluoro-1-methylpiperidin-4-yl]amino}-3-[(trifluoromethyl)sulfanyl]indolizin-2-yl)-1,2,4-oxadiazol-5-yl]methyl}-N3-methylbenzene-1,3-dicarboxamide]
[1]
  IC50: < 750 nM
[2]
  IC50: < 750 nM
[4]
  AC50: < 750 nM
[5]
  Kd: < 10 nM

## CN1CC[C@@H](Nc2cccn3c(SC(F)(F)F)c(-c4noc(CNC(=O)C5(O)CC5)n4)cc23)[C@@H](F)C1 [Example 24, N-{[3-(8-{[(3S,4R)-3-fluoro-1-methylpiperidin-4-yl]amino}-3-[(trifluoromethyl)sulfanyl]indolizin-2-yl)-1,2,4-oxadiazol-5-yl]methyl}-1-hydroxycyclopropane-1-carboxamide]
[1]
  IC50: 750 to 1500 nM
[2]
  IC50: 750 to 1500 nM
[4]
  AC50: < 750 nM
[5]
  Kd: < 10 nM

## CN1CC[C@@H](Nc2cccn3c(SC(F)(F)F)c(-c4noc(CNC(=O)c5cccc6c5NC(=O)C6)n4)cc23)[C@@H](F)C1 [Example 17, N-{[3-(8-{[(3S,4R)-3-fluoro-1-methylpiperidin-4-yl]amino}-3-[(trifluoromethyl)sulfanyl]indolizin-2-yl)-1,2,4-oxadiazol-5-yl]methyl}-2-oxo-1,3-dihydroindole-7-carboxamide]
[1]
  IC50: < 750 nM
[2]
  IC50: 750 to 1500 nM
[4]
  AC50: < 750 nM
[5]
  Kd: < 10 nM

## CN1CC[C@@H](Nc2cccn3c(SC(F)(F)F)c(-c4noc(CNC(=O)CC(C)(C)O)n4)cc23)[C@@H](F)C1 [Example 65, N-{[3-(8-{[(3S,4R)-3-fluoro-1-methylpiperidin-4-yl]amino}-3-[(trifluoromethyl)sulfanyl]indolizin-2-yl)-1,2,4-oxadiazol-5-yl]methyl}-3-hydroxy-3-methylbutanamide]
[1]
  IC50: ≥ 3000 nM
[2]
  IC50: ≥ 3000 nM
[4]
  AC50: ≥ 3000 nM
[5]
  Kd: 10 to 100 nM

Reference: patent US20260347353A1, “INDOLIZINE DERIVATIVES FOR TREATING CANCER” (Antares Therapeutics, Inc., priority 2022, published 2026)
